From patent US20180186796A1, “COMPOUNDS AND USES THEREOF” (LEAD DISCOVERY SIENA S.R.L., priority 2014, published 2018) come the findings set out here.

Data set [1] can be described thus: Microsomal stability assay.
The subject of data set [2] is U87 cells. Nature of the data set: Orthotopic mouse model of GBM. In kind it is in vivo, mice. The note with it: 50 mg/kg three times per week for 4 weeks.
Protocol: Survival curves (days) of orthotopic mouse model of GBM.
Male CD1 nude mice (Charles River, Milan, Italy) were maintained under the guidelines established by University of L'Aquila, Medical School and Science and Technology School Board Regulations, complying with the Italian government regulations for the use of laboratory animals. Before any invasive manipulation, mice were anesthetized with a mixture of ketamine (25 mg/ml)/xylazine (5 mg/ml). Tumor grafts were obtained by injecting with a Hamilton syringe mounted on a stereotactic instrument, 2*10^3 U87 cells resuspended in 2 microL PBS (David Kopf Instruments, CA, USA). The cells were injected after the exposition of periosteal cranic site and the drimming of a 1 mm diameter hole localized at 4 mm from striatum and with a depth of 4 mm. The wound was treated with antibiotics and was surgically sutured.
Data set [3] deals with SH-SY5Y neuroblastoma cells. Nature of the data set: SH-SY5Y xenograft mouse model. In kind it is in vivo, mice. As for the experimental part: Male CD1 nude mice (Charles River, Milan, Italy) were maintained under the guidelines established by the inventors' Institution (University of L'Aquila, Medical School and Science and Technology School Board Regulations, complying with the Italian government regulation n. 116 Jan. 27 1992 for the use of laboratory animals). Before any invasive manipulation, mice were anesthetized with a mixture of ketamine (25 mg/mL)/xylazine (5 mg/mL). Tumor grafts were obtained by injecting s.c. 1×10^6 SH-SY5Y cells in 100 μL of 12 mg/mL Matrigel (Becton Dickinson, Franklin Lakes, N.J., USA). Tumor growth was monitored daily by measuring the average tumor diameter. The tumor volume was expressed in mm^3 according to the formula 4/3πr^3.

The nature of data set [4]: In vivo pharmacokinetics / biodistribution. More on the design: species or system mice. The note with it: administered compound itself, 50 mg/Kg i.p., BALB/C mice.
Protocol: The animal protocols used were reviewed and approved by the Animal Care and Ethics Committee of the Universita{grave over ( )} degli Studi di Siena, Italy. Male BALB/C mice (weight 20-30 g) were obtained from Charles River (Milan, Italy). […] The blood, previously heparinized, was centrifuged at 4000 rpm for 20 minutes to separate the plasma fraction and then 500 μl were collected in a test tube. […] Samples were centrifuged at 4000 rpm for 20 minutes, the supernatant was recovered, dried under vacuum and analyzed by LC-UV-MS. Brain was homogenized using a glass/glass Potter-Elvehjem homogenizer in presence of Tris-HCl buffer (50 mM) and compounds were recovered using 7 mL of ACN then treated as previously described for blood samples.
A short description of data set [5]: PAMPA, intestinal (GI) permeability. The note with it: Membrane Retention, GI. (The PAMPA barrier holds no transporters, so it reflects passive diffusion.)
Data set [6] relates to U87 cells. Nature of the data set: U87 xenograft. In kind it is in vivo, mice. The protocol:
Male CD1 nude mice (Charles River, Milan, Italy) were maintained under the guidelines established by University of L'Aquila, Medical School and Science and Technology School Board Regulations, complying with the Italian government regulations for the use of laboratory animals. Before any invasive manipulation, mice were anesthetized with a mixture of ketamine (25 mg/ml)/xylazine (5 mg/ml). Tumor grafts were obtained by injecting s.c. 1×10^6 U87 cells in 100 μL of 12 mg/mL Matrigel (Becton Dickinson, Franklin Lakes, N.J., USA). Mice were divided in four groups: treated with vehicle, treated with radiotherapy, treated with Si306 and treated with Si306 in combination with radiotherapy. […] At the endpoint, tumors were recovered and weighted. The tumor xenograft was irradiated once with 4Gy dose at first sign of palpable tumor mass.
Antibodies were purchased from Cell Signaling (Cell Signaling Technology, Inc.).

The next data set relates to human fibroblast wi38. Nature of the data set: TGF-beta induced myofibroblast differentiation, Western blot. In kind it is cell-based. The note with it: Si306 1 μM. The protocol: FIG. 17. Western blot analysis of PDGFR-beta and alpha-SMA expression.
Total cell lysates were obtained by incubating cells in a lysis buffer containing 1% triton, 0.1% SDS, 2 mM CaCl2, 10 mg/ml orthovanadate, and 1× protease inhibitors cocktail (Sigma, St. Louis, […]., USA). Protein content was determined using the Protein Assay Kit 2 (Bio-Rad Laboratories, Hercules, Calif., USA). Sixty micrograms of proteins were electrophoresed in 10% SDS-polyacrylamide gel. After electrophoresis gels were placed onto Trans-Blot Turbo mini nitrocellulose transfer pack and transferred using Trans-Bolt Turbo Transfer System (Bio-Rad Laboratories, Hercules, Calif., USA). The membrane was incubated with 1 μg/ml primary antibody and then with appropriate horseradish peroxidase-conjugated secondary antibodies. Primary antibodies β-actin, PDGFR-beta, alpha-SMA were purchased from Cell Signaling Technology; Protein bands were visualized using a chemiluminescent detection system (Thermo Scientific, Rockford, Ill., USA) and signals were digitally acquired by Chemidoc XRS system (Bio-Rad Laboratories).
On the technique in general: Immunoblotting shows a protein as a band on a membrane.

The next data set relates to U251 cells. Kind of data set: Proliferation assay on U251 cells. In kind it is cell-based, human. The protocol: U87 and U251 cells were purchased from European Collection of Cell Cultures (ECACC, Salisbury, UK) and were cultured in DMEM medium supplemented with 10% Foetal Bovine Serum. In order to determine antiproliferative effect of drugs tumor cells were seeded at 2×10^5 cells/ml density and treated with compounds at indicated concentrations. The cultures were maintained at 37° C. in 5% v/v CO2 for 72 h. Cell number and viability were evaluated by Trypan blue exclusion test. Viable cells were expressed as percentage respect to cells treated with vehicle (=100%). Mean and SD values of at least three different experiments are shown.
U87 and U251 cells were purchased from European Collection of Cell Cultures (ECACC, Salisbury, UK) and were cultured in DMEM medium supplemented with 10% Foetal Bovine Serum. In order to determine antiproliferative effect of drugs tumor cells were seeded at 2×10^5 cells/ml density and treated with compounds at indicated concentrations. The cultures were maintained at 37° C. in 5% v/v CO2 for 72 h. Cell number and viability were evaluated by Trypan blue exclusion test. Viable cells were expressed as percentage respect to untreated cells (=100%/). Mean and SD values of at least three different experiments are shown.

The next data set has as its target T1, Recombinant human Src (Homo sapiens, UniProt P12931).
T1 construct: purchased Upstate (Lake Placid, N.Y.)
Nature of the data set: Enzymatic assay on isolated Src. In kind it is biochemical.

For a further data set, the system named is SH-SY5Y cells. Nature of the data set: Cell cycle analysis. In kind it is cell-based, human. As for the experimental part:
Cells (SH-SY5Y) were seeded in 60-mm petri dishes at a density of 3×10^5. After treatment and subsequent incubation for 24 h at 37° C. and 5% CO2 in humidified atmosphere, harvested cells were washed and fixed overnight with 70% ethanol. Then, ethanol was removed by centrifugation and the cells resuspended in PBS, stained with 50 μg/mL propidium iodide (PI) at 4° C. for 30 min in the dark. Stained cells were analyzed by Tali image based cytometer (Life Technologies, Carlsbad, Calif., USA) counting 20 fields for sample and exported fcs raw data were elaborated by Flowing software (v. 2.5.0, by Perttu Terho, University of Turku, Finland).

The next data set has as its target T2, Recombinant human Abl (Homo sapiens, UniProt P00519).
T2 construct: purchased Upstate
Kind of data set: Enzymatic assay on isolated Abl. In kind it is biochemical. The following applies: mean of at least two experiments.

Read-outs that look alike come from different tables or passages of the source.

T1 sequence (P12931 whole entry): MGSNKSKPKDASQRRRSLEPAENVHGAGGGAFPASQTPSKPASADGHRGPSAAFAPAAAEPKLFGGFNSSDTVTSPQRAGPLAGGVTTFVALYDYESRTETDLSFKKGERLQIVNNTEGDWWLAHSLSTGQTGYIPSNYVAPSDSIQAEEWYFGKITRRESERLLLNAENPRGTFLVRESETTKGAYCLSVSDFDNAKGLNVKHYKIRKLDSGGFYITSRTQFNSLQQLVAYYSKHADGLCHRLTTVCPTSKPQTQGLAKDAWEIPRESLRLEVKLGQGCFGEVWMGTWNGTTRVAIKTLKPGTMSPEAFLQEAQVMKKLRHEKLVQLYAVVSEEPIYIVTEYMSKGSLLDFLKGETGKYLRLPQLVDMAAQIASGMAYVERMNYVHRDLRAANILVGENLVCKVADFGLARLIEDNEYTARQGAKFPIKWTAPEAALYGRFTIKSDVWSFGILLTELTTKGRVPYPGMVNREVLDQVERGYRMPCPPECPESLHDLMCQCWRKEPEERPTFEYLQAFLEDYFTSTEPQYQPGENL
T2 sequence (P00519 whole entry): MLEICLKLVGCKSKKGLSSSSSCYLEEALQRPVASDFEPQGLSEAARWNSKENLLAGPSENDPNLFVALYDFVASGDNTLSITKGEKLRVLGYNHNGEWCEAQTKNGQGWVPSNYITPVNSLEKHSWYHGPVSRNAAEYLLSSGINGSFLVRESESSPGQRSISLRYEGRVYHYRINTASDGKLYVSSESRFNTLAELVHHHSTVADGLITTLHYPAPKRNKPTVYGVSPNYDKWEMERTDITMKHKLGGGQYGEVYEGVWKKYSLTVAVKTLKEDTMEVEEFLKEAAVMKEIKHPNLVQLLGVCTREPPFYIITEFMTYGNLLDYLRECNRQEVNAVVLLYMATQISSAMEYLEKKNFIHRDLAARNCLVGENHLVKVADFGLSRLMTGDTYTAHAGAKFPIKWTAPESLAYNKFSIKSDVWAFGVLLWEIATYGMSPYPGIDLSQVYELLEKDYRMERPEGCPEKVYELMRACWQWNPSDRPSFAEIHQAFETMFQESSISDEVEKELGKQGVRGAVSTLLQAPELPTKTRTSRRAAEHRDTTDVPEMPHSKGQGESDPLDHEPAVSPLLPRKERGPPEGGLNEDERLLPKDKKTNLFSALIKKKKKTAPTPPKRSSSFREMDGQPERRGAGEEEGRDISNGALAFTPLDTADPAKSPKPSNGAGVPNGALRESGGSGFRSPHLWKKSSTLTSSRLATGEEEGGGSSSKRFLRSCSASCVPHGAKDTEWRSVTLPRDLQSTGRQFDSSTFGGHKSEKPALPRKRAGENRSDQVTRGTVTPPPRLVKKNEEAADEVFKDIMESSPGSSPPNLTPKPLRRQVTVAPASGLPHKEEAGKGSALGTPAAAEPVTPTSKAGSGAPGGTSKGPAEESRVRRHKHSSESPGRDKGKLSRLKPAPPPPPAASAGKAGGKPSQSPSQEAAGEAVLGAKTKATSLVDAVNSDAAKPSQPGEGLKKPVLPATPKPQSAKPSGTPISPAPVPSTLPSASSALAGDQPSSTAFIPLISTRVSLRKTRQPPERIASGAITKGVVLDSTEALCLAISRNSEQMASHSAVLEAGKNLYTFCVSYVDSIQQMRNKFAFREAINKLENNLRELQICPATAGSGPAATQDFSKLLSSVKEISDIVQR
Protocol for Recombinant human Abl: Recombinant human Abl was purchased from Upstate.
Activity was measured in a filter binding assay using an Abl specific peptide substrate (Abtide, Upstate).
Description for Recombinant human Src: Recombinant human Src was purchased from Upstate (Lake Placid, N.Y.).

As a reminder, the Ki is the equilibrium dissociation constant of an inhibitor or competing ligand from its target. As to `ClC(Cn1ncc2c(Nc3cccc(Br)c3)nc(SCCN3CCOCC3)nc21)c1ccccc1` (centres unmarked) [Si306, N-(3-Bromophenyl)-1-(2-chloro-2-phenylethyl)-6-[(2-morpholin-4-ylethyl)thio]-1H-pyrazolo[3,4-d]pyrimidin-4-amine], the “Metabolic Stab. %” value in [1] (percentage of unmodified drug, Table 8) amounted to 97.2%. Besides, the “Metabolic Stab.” value in data set [1] (percentage of unmodified parent drug, human liver microsomes 60 min) was found to be 96%. In addition, in the data set on U87 cells [2], the “survival of mice respect to control group” value is “significant ability in prolonging survival”. In addition, the tumour growth inhibition result in [3] (50 mg/kg) is given as “significantly inhibited”. Moreover, the “signs of distress or weight loss” value in [3] (50 mg/kg daily oral) is listed as “did not shown signs of distress or weight loss”. Besides, the “reduction in mean tumor volume compared to placebo” value in data set [3] (50 mg/kg daily oral, 60 days) is “more than 50%”. For the same molecule, the “Quantity of Compound, BLOOD” value in [4] (30′) was 10.2 ± 4.82 nmol of compound/g of tissue; in data set [4] (4 h), 2.6 ± 1.31 nmol of compound/g of tissue; in [4] (8 h), 2.4 ± 0.29 nmol of compound/g of tissue; in data set [4] (24 h), 1.1 ± 0.65 nmol of compound/g of tissue. Moreover, the “Quantity of Compound, BRAIN” value was 0.3 ± 0.18 nmol of compound/g of tissue in data set [4] (15′) and 2.3 ± 0.70 nmol of compound/g of tissue in [4] (24 h). Moreover, the “PAMPA GI (MR %)” value in [5] is on record as “(46.1) %”. For the same molecule, in the data set on U87 cells [6] (50 mg/kg every other day for 30 days, alone), the “reduction of tumor weight vs CTR” value was “about 50%”. Moreover, in the data set on U87 cells [6] (immunohistochemistry of excised tumors), the “myofibroblast content (alpha-SMA expression) in tumor masses” value is “reduction of myofibroblast content”. Also, the “expression of PDGFR and alpha-SMA downstream of TGF-beta” value with human fibroblast wi38 was “able to block the expression of PDGFR and alpha-SMA”. The “reduction of the total cell number vs control” value in the data set with U251 cells (U251, 5 μM, 72 h) was “about 50%”. Besides, the “antiproliferative effect in combination with mitomycin C” value with U251 cells (U251, 72 h, 1 μM Si306 plus increasing mitomycin C) is reported as “synergic antiproliferative effect”. Further, the Ki at Recombinant human Src (mean of at least two experiments, read-out: Enzymatic Data (Ki, μM) c-Src) was 0.13 µM; on Recombinant human Src (read-out: Ki c-Src), roughly 0.1 µM; on Recombinant human Abl, 0.12 µM. In the data set on SH-SY5Y cells (10 μM), the “apoptosis, treated cells” value was “about 50%”. Also, in the data set with SH-SY5Y cells (0.1-10 μM, starting from 0.1 μM), the “accumulation of cells in the G1 phase of cell cycle” value was “significant and dose-dependent accumulation”.
